Laboratory results as given in patent US11242365B2, “FOXM1-derived peptide, and vaccine including same” (OncoTherapy Science, Inc., priority 2015, dated 2022).
“Also recorded” adds a separate entry of the source.

What was measured:
[1] = tested on: target cells (C1R-A01) pulsed with peptide; test: IFN-gamma ELISA of CTL clones established by limiting dilution (HLA-A*01:01); format: cell-based, human; details: CTL clone against peptide-pulsed C1R-A01; listed as FOXM1-A01-10-566
Experimental: After induction of CTLs in vitro, the CTLs were seeded onto 96-well round-bottomed microplates (Nalge Nunc International) at 1 cell/well or 10 cells/well. The CTLs were cultured with two types of Mitomycin C-treated human B lymphoblastoid cell lines (1×10^4 cells/well each) in a total of 150 micro-l/well 5% ABS/AIM-V medium with an anti-CD3 antibody (final concentration: 30 ng/ml) and IL-2 (final concentration: 125 IU/ml). Ten days later, 50 micro-l 5% ABS/AIM-V medium containing 500 IU/ml IL-2 was added to the culture.
(§1) Peptide-pulsed C1R-A01 (1×10^4 cells/well) was prepared as the target cell. The IFN-gamma ELISPOT assay and IFN-gamma ELISA were performed according to the assay kit manufacturer's manual.

[2] = tested on: target cells (C1R-A01) pulsed with peptide; test: IFN-gamma ELISA of CTL lines (HLA-A*01:01); format: cell-based, human; details: CTL line against peptide-pulsed C1R-A01; listed as FOXM1-A01-10-566
Experimental: CTLs were propagated using methods similar to those reported by Riddell et al. (Walter E A et al., N Engl J Med 1995, 333(16): 1038-44; Riddell S R et al., Nat Med 1996, 2(2): 216-23). The CTLs were cultured in 25 ml 5% ABS/AIM-V medium together with two types of Mitomycin C-treated human B lymphoblastoid cell lines (5×10^6 cells/25 ml medium each) and an anti-CD3 antibody (final concentration: 40 ng/ml). On the day after beginning of the culturing, IL-2 (final concentration: 120 IU/ml) was added to the culture. On days 5, 8 and 11, the medium was changed to a 5% ABS/AIM-V medium containing IL-2 (final concentration: 30 IU/ml) (Tanaka H et al., Br J Cancer 2001, 84(1): 94-9; Umano Y et al., Br J Cancer 2001, 84(8): 1052-7; Uchida N et al., Clin Cancer Res 2004, 10(24): 8577-86; Suda T et al., Cancer Sci 2006, 97(5): 411-9; Watanabe T et al., Cancer Sci 2005, 96(8): 498-506).
as §1

[3] = tested on: COS7 cells expressing FOXM1 and HLA-A*01:01; test: IFN-gamma production of CTL clone against target cells expressing FOXM1 and HLA-A*01:01; format: cell-based, African green monkey
Excerpt: A cDNA encoding the FOXM1 or HLA-A*01:01 gene was amplified by PCR. The PCR-amplified product was each incorporated into an expression vector. Either or both of the FOXM1 gene-expressing vector and the HLA-A*01:01 gene-expressing vector were introduced into COS7 cells, which is a cell line negative for HLA, using Lipofectamine 2000 (Invitrogen). On the day after gene introduction, COS7 cells were detached and harvested using versene (Invitrogen), and used as the target cell for confirmation of IFN-gamma production (5×10^4 cells/well).
IFN-gamma production of the FOXM1-A01-10-566 (SEQ ID NO: 56)-specific CTL clone against target cells expressing FOXM1 and HLA-A*01:01 was investigated. COS7 cells expressing both FOXM1 and HLA-A*01:01 were prepared as the target cell. COS7 cells expressing either one of FOXM1 and HLA-A*01:01 were prepared as the negative control cell. […] This clearly proves that FOXM1-A01-10-566 (SEQ ID NO: 56) is a peptide generated by antigen processing, and is presented on the cell surface with the HLA-A*01:01 molecule and recognized by CTLs.

SSDPASOLSY (SSDPASQLSY; a peptide derived from FOXM1) [SEQ ID NO: 56]
peptide-specific IFN-gamma production of CTL clone (ELISA) [1]: showed a peptide-specific IFN-gamma production
IFN-gamma production by the CTL line (ELISA) [2]: observed; also recorded: CTL line that produce IFN-gamma in a peptide-specific manner was established
IFN-gamma production of peptide-specific CTL clone ([3]; COS7 cells expressing both FOXM1 and HLA-A*01:01): showed IFN-gamma production
IFN-gamma production of peptide-specific CTL clone ([3]; negative control: COS7 cells expressing either one of FOXM1 and HLA-A*01:01, listed as FOXM1-A01-10-566): a significant IFN-gamma production was not observed; also recorded: a significant IFN-gamma production was not shown
